Test results: patent publication US20150004110A1, “NOVEL ANTI-AGING AND DEPIGMENTING COSMETIC COMPOSITIONS” (DIVERCHIM, priority 2011, published 2015)

How the values were obtained:
B16 melanocytes = assay: Cell viability, MTT reduction test; type: cell-based
Protocol: The melanocytes were seeded in a 96-well plate and were cultured for 24 h (37° C., 5% CO2, DMEM 1 g/L glucose without phenol red supplemented with glucose at 3 g/L, L-glutamine at 2 mM, penicillin at 50 U/mL, streptomycin at 50 μg/mL, foetal calf serum (FCS) at 10%). After incubation, the culture medium was then replaced with culture medium supplemented or not supplemented (unstimulated control) with a stable derivative of α-MSH and containing or not containing (controls) the test compounds or the reference (kojic acid at 25, 100, 400, 800 μg/mL). Each experiment was carried out with n=3, apart from the controls carried out with n=6, then the cells were incubated for 72 h. Wells without cells received in parallel the same quantities of medium supplemented or not supplemented with NDP-MSH and containing or not containing the test compounds or the reference in order to quantify the background noise associated with the presence of the compounds. At the end of the treatment, the cells were incubated in the presence of MTT (tetrazolium salt), the transformation of which to blue crystals of formazan is proportional to the activity of succinate dehydrogenase (mitochondrial enzyme). After dissociation of the cells, the formazan was dissolved in DMSO medium and the optical density (OD), representative of the number of living cells and of their metabolic reactivity, was measured with a microplate reader at 540 nm (VERSAmax, Molecular Devices). The operating conditions are the same as in Example 12.

collagen I = assay: Staining and immunolabelling of skin explant sections: collagen I; type: cell-based, human; conditions: treated skin explant sections
Protocol: 1. Preparation of the explants • During abdominoplasty of a person, 45 skin explants were prepared. The explants were put in BEM medium (BIO-EC's Explants Medium) for survival at 37° C. in humid atmosphere, enriched with 5% CO2.
2. Application of the products • The solutions are prepared in DMSO from pure products, in order to obtain final concentrations of […] by incorporating an identical volume of 10 μl in each well and for each treatment. The treatment was carried out in the survival medium on days 0, 1, 2, 5 and 7.
3. Taking samples • On D0, the 3 explants of batch TO were taken and each explant was cut in two. One part was fixed in buffered formol for observation of the general morphology. The other was frozen and stored at −80° C. • On D5 and D9, 3 explants from each batch were taken and treated in the same way.
4. Histological treatment • After fixation for 48 hours in buffered formol, the samples were dehydrated and embedded in paraffin using a Leica 1020 automatic dehydrator. They were embedded according to procedure MO-H-153 using a Leica EG 1160 coating station. Sections of 5 μm were prepared according to procedure MO-H-173 using a Minot-type microtome, Leica RM 2125 and mounted on Superfrost® histological glass slides.
6. Staining and immunolabelling
Immunolabelling will be carried out on sections with the appropriate antibody. […]

[1] = test system: normal human dermal fibroblasts; assay: Neosynthesis of sulphated GAGs ([35S]-sulphate incorporation) in dermal fibroblasts; type: cell-based; conditions: monolayer of normal human dermal fibroblasts
Protocol: The effects of this compound were evaluated on a monolayer of normal human dermal fibroblasts by measuring the neosynthesis of glycosaminoglycans designated as sulphated GAGs (incorporation of [^35S]-sulphate). […] This might explain the effect of dermal reinforcement already observed on skin explants ex vivo.

PPARγ (h) [2] = target: T1, PPARγ (h) (Homo sapiens, UniProt P37231); assay: PPARγ competitive radioligand binding assay (Cerep)
T1 construct: Cerep (contract laboratory that ran the assay)
T1 sequence (P37231 1-505): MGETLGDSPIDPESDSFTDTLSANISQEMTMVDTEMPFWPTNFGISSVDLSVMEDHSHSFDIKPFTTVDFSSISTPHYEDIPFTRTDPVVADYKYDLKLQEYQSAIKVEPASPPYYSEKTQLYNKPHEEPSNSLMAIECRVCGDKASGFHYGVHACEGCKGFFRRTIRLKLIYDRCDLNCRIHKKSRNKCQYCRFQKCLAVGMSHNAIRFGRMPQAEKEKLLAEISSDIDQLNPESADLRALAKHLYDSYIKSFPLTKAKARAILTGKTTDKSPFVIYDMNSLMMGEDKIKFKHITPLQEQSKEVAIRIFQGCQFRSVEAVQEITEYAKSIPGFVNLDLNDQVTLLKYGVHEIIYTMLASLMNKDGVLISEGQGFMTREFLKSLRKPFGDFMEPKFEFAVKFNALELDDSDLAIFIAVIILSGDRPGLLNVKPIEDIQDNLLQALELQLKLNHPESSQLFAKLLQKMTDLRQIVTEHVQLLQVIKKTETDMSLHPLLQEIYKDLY
Protocol: The affinity of compound 1 for the PPAR receptors (α and γ) was tested by in vitro binding assays (tests carried out by the company Cerep).
This is a nuclear receptor competitive binding assay, between a radiolabelled ligand and the test molecule (here compound 1).
The principle of the technique consists of measuring the displacement of the radioactive ligand bound to the receptor by the test molecule. • Material and Methods
The specific binding of the ligand is defined by the difference between total binding and non-specific binding determined in the presence of an excess of unlabelled ligand.
The results are expressed as: • percentage of control specific binding ((measured specific binding/control specific binding)×100)) • percentage of inhibition of control specific binding ((100−(measured specific binding/control specific binding)) obtained in the presence of compound 1.
The values of IC50 (concentration at which the maximum control specific binding is inhibited by 50%), and the Hill coefficient (nH) are determined by non-linear regression analysis of the curves of competition with a mean replicated value using adjustment of Hill's equation
The inhibition constant (Ki) was calculated using the Cheng-Prusoff equation

PPARγ (h) [3] = target: T1, PPARγ (h); assay: PPARγ agonist effect, coactivator Alpha screen; type: biochemical
Protocol: The agonist or antagonist activity of compound 1 on the PPAR receptors was tested by fluorescence techniques. • Material and Methods
The results are expressed as: • percentage of control specific agonist response (measured specific response/control specific agonist response)×100) and • percentage inhibition of the control specific agonist response (100−((measured specific response)/control specific agonist response)×100)) obtained in the presence of compound 1.
The EC50 values (concentration at which the maximum specific response is 50%) and the IC50 values (concentration at which the maximum control specific agonist response is inhibited by 50%) are determined by non-linear regression analysis of the concentration-response curves with a mean replicated value using adjustment of Hill's equation

Structure (SMILES): Oc1ccccc1CCOc1ccc(F)cc1 [Compound 1, 2-[2-(4-fluoro-phenoxy)-ethyl]-phenol]
- Viability (MTT) % stimulated control (B16 melanocytes; 10 μM, B16, 72 h, Table 2): 83%
- Viability (MTT) % stimulated control (B16 melanocytes; 30 μM, B16, 72 h, Table 2): 86%
- Viability (MTT) % stimulated control (B16 melanocytes; 30 μM, comparison with 2 reference molecules, Table 3): 85%
- Viability (MTT) % stimulated control (B16 melanocytes; 100 μM, B16, 72 h, Table 2): 22%
- Viability (MTT) % stimulated control (B16 melanocytes; 100 μM, comparison with 2 reference molecules, Table 3): 13%
- Collagen I in the papillary dermis (collagen I): clear overexpression
- Neosynthesis of sulphated GAGs [1]: stimulated the neosynthesis of sulphated GAGs, in a non-concentration-dependent fashion
- Interpretation of the 49% inhibition of PPARγ specific binding (PPARγ (h) [2]; 10^−5 M): slight to moderate effect
- inhibition at 10 µM (PPARγ (h) [2]; 10^−5 M, agonist radioligand, read-out: % Inhibition of control specific binding): 49%
- inhibition at 1 µM (PPARγ (h) [2]; 10^−6 M, agonist radioligand, read-out: % Inhibition of control specific binding): 1%
- inhibition at 0.1 µM (PPARγ (h) [2]; 10^−7 M, agonist radioligand, read-out: % Inhibition of control specific binding): 0%
- Activity with respect to the PPARγ receptor (binding, conclusion in words) (PPARγ (h) [2]; 10^−7 to 10^−5 M): no activity
- % Control agonist response (PPARγ (h) [3]; 10^−5 M): 0%
- % Control agonist response (PPARγ (h) [3]; 10^−6 M): 0%
- % Control agonist response (PPARγ (h) [3]; 10^−7 M): 0%
- PPARγ agonist activity (conclusion in words) (PPARγ (h) [3]; 10^−7 to 10^−5 M): not an agonist
